Measured values published in publication PMC8370248, “Key Metabolic Enzymes Involved in Remdesivir Activation in Human Lung Cells” (Antimicrobial Agents and Chemotherapy, 2021).
Like-named read-outs stand apart in the source and are kept apart here.

Biological target: T1, CES2 (Homo sapiens, UniProt O00748)
T1 construct: purchased Corning Incorporated (Corning, NY); host or cells: baculovirus-infected insect cells (microsomal fraction, Supersomes)
T1 sequence (O00748 27-559): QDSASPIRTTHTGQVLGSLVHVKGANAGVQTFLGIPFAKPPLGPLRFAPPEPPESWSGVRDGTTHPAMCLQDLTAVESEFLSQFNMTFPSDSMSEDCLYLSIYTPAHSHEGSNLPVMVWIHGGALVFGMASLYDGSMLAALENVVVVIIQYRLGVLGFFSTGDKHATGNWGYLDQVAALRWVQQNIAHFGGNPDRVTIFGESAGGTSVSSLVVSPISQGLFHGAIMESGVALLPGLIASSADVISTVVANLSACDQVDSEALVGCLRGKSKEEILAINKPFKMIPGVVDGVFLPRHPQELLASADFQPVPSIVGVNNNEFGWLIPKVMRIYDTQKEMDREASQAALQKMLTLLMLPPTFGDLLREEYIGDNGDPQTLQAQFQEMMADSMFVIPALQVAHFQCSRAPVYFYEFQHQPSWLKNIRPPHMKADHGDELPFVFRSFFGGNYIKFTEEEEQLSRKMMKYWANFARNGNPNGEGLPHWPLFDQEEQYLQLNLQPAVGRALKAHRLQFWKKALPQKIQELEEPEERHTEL
Experiment: CES2-catalyzed hydrolysis of RDV and control (substrate disappearance, LC-MS)
Assay type: in vitro ADME
Conditions: for half-life at 1 μM: human, CES2 Supersomes (protein-enriched subcellular fraction)
Description: The catalytic activity of carboxylesterase 1b (CES1b), carboxylesterase 1c (CES1c), CES2, and CatA toward RDV hydrolysis was measured using protein-enriched subcellular fraction (CES isozymes) or recombinant proteins (CatA). The reaction rates were determined by monitoring the disappearance of RDV using a liquid chromatography-mass spectrometry (LC-MS) method.
RDV or positive-control substrates (oseltamivir for CES1 or procaine for CES2) were incubated with individual Supersome preparations (final CES concentration, 1.5 mg/ml) in 0.1 M potassium phosphate buffer (pH 7.4) at 37°C. Substrates were added to a final concentration of 1 μM to initiate the reaction. The final incubation volume was 250 μl. Aliquots were removed after incubation for 0, 10, 30, 60, and 120 min. The reactions were stopped by the addition of the quench solution containing the LC-MS internal standard (IS) (labetalol). Following protein precipitation and centrifugation, 150 μl of supernatant was dried down and reconstituted with 250 μl water. All samples were analyzed by an LC-MS, and the analyte/internal standard peak area ratio (PAR) values were used for quantification. Disappearance of RDV or positive-control compounds was monitored over the incubation time period. Three experiments were conducted with two replicates in each experiment, and data are reported as averages from the three experiments.
In all studies apart from those with CES1 and CatA with enzyme inhibitors, samples (10-μl aliquots) were injected with a Thermo Scientific autosampler. The LC instrumentation consisted of a Thermo Scientific Dionex UltiMate 3000 RS pump, and the LC column was a Waters Acquity UPLC BEH C18 (1.7 μm particle size, 2.1 by 50 mm). Mobile phases A and B were water 99.9% (vol/vol) containing 0.1% (vol/vol) formic acid, and acetonitrile 99.9% (vol/vol) containing 0.1% (vol/vol) formic acid, respectively, pumped at 0.2 ml/minute. Elution was achieved by a series of linear gradients over 2.33 min followed by reequilibration for 2.57 min. The MS instrument was a Thermo Q Exactive Hybrid Quadrupole-Orbitrap operating in positive or negative ionization mode as appropriate. This was calibrated on a weekly basis, and data were processed with GMSU 8.4.66 software by Gubbs Inc. (Alpharetta, GA). Mass tolerance of 5 ppm was used.

In the case of `CCC(CC)COC(=O)[C@H](C)N[P@](=O)(OC[C@H]1O[C@@](C#N)(c2ccc3c(N)ncnn23)[C@H](O)[C@@H]1O)Oc1ccccc1` [RDV, Remdesivir], the “Activity for amidate ester cleavage, CES2” value (1 μM substrate, CES 1.5 mg/ml, pH 7.4, 37°C) is reported as 2.8 ± 2.6 × 10^−4 nmol/min/mg, the half-life at 1 μM (pH 7.4, 1 μM substrate, CES 1.5 mg/ml, pH 7.4, 37°C, read-out: t1/2, CES2 (converted)) is reported as greater than 16.7 h and the half-life at 1 μM (pH 7.4, as stated in text, read-out: half-life, CES2) is reported as greater than 16 h.
